Experimental data as given in paper PMC12722636, “Structural Pharmacology of Bufotenine Derivatives in Activating the 5-HT1A Receptor for Therapeutic Potential in Depression and Anxiety” (Research, 2025).
Like-named read-outs stand apart in the source and are kept apart here.

Legend:
CUMS model mice [1] = assay: Open-field test (OFT) in CUMS depression model; details: 15 mg/kg i.p. for 1 week; for OFT time spent in the center / OFT total distance traveled: CUMS mice, regardless of 5-HT1AR knockdown, Fig. 6D
CUMS model mice [2] = assay: Sucrose preference test (SPT) in CUMS depression model; details: 15 mg/kg i.p. for 1 week, versus CUMS model, Fig. 6C
5-HT2A receptor = target: T1, 5-HT2A receptor (Homo sapiens, UniProt P28223); assay: cell-based; format: cell-based
T1 construct: expressed in transfected cells; host or cells: HEK 293T
T1 sequence (P28223 whole entry): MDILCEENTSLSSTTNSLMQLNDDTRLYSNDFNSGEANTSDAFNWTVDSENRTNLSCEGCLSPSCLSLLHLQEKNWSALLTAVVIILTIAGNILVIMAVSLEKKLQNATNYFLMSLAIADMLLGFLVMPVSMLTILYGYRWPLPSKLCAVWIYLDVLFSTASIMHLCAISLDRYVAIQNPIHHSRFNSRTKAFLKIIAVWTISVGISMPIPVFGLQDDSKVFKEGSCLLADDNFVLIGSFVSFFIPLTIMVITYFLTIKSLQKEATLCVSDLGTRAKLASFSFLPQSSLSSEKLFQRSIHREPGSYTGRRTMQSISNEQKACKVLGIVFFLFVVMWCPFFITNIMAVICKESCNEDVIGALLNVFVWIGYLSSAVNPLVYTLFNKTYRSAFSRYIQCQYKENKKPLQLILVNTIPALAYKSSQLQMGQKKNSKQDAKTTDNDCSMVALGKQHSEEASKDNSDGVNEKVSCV
Source text: We evaluated the impact of bufotenine derivatives on 6 serotonin receptor subtypes associated with depression (5-HT1A, 5-HT1B, 5-HT1D, 5-HT2A, 5-HT2C, and 5-HT7) using the GloSensor cAMP assay to measure Gi and Gs activation and the IP-One assay to assess Gq activation, thereby detecting signaling activity at each receptor. […] We conducted a thorough pharmacological analysis of bufotenine derivatives to evaluate their hallucinogenic potential via 5-HT2AR activation, comparing their receptor binding profiles and functional activities at 5-HT1AR and 5-HT2AR subtypes.
The downstream Gαq signaling of 5-HT2A was evaluated using the IP-One HTRF assay (Cisbio). HEK 293T cells were cultured in DMEM with 10% FBS and 1% penicillin–streptomycin at 37 °C, 5% CO2. After 24 h of transfection, cells were resuspended in stimulation buffer (8 × 10^5 cells/ml) and plated at 7 μl/well into 384-well plates. Ligands diluted in buffer (7 μl) were added and incubated for 1 h at 37 °C. IP-One-d2 and anti-IP-One cryptate (3 μl each) were then added, followed by 30-min incubation at room temperature. HTRF signals were measured using an EnVision reader (PerkinElmer).
(§3) An evaluation of the concentration–response curves was carried out using a logistic equation with 3 parameters. Calculations of pEC50 values were performed with the use of the sigmoid 3-parameter equation. In order to assess the significance, a 1-way or 2-way analysis of variance was conducted, followed by Bonferroni’s or Dunnett’s post hoc test. Differences were considered significant when P < 0.05 and are shown as *P < 0.05, **P < 0.01, or ***P < 0.001.

[3] = test system: PCPA-induced mouse model of depression and anxiety; assay: Forced swimming test (FST) in PCPA model; format: in vivo, C57BL/6 male mice; details: for Immobility time in FST: PCPA model, 5-OH-DMT 15 mg/kg i.p. or WAY100635 1 mg/kg i.p. for 3 d, versus control or model group, Fig. 6G
Procedure: (§1) Mice in the control group were fed with saline solution containing 0.1% DMSO (vehicle) for 3 d. Mice that were injected subcutaneously with 150 mg/kg PCPA twice daily for 3 d developed symptoms of depression. […] For WAY100635 treatment, mice were injected intraperitoneally with 1 mg/kg WAY100635 for 3 d. […] Then, mice were tested for all behaviors.

[4] = test system: PCPA-induced mouse model of depression and anxiety; assay: Sucrose preference test (SPT) in PCPA model; format: in vivo, C57BL/6 male mice; details: for Sucrose preference: PCPA model, 5-OH-DMT 15 mg/kg i.p. or WAY100635 1 mg/kg i.p. for 3 d, versus control or model group, Fig. 6H
Procedure: as §1

mice [5] = assay: Head-twitch response (HTR), side effect detection; format: in vivo, C57BL/6 male mice; details: 25 mg/kg i.p., recorded 10 min, in contrast to 5-MeO-DMT, Fig. S10
Procedure: (§2) Then, HTR and HLA were immediately tested. Mice were placed into the observation arena (25 × 25 × 40 cm) under low-light conditions. The number of head-twitch events and total distance were respectively recorded for 10 and 30 min. For the HTR test, the number of head twitches was examined by 2 observers blinded to the treatments via video recordings. For the HLA test, the total distance traveled was measured by using tracking software to process video recordings.

5-HT1A receptor = target: T2, 5-HT1A receptor (Homo sapiens, UniProt P08908); assay: GloSensor cAMP assay, 5-HT1A Gi signaling in HEK 293T cells; format: cell-based
T2 sequence (P08908 1-422): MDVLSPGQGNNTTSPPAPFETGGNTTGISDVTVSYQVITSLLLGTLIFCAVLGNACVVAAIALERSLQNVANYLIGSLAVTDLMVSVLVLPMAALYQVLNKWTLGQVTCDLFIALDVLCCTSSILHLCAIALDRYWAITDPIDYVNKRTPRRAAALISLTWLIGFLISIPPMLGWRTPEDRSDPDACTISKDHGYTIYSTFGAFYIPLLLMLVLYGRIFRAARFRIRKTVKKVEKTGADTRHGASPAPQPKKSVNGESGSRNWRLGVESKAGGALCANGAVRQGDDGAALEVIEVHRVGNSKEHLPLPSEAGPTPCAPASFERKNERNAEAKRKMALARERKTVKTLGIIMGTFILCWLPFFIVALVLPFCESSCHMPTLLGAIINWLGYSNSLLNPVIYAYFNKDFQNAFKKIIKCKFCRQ
Procedure: (§4) The downstream Gαi signaling of 5-HT1A was assessed using the GloSensor cAMP assay (Promega). HEK 293T cells were cultured in DMEM with 10% FBS and 1% penicillin–streptomycin at 37 °C and 5% CO2. Cells were transfected with 5-HT1A constructs and the GloSensor-22F biosensor at a 3:2 ratio. After 24 h, cells were resuspended in CO2-independent medium with 2% GloSensor reagent and plated at 3.5 × 10^5 cells/ml (20 μl/well) into 384-well plates. After 1-h incubation, forskolin (1 μM) and test ligands were added, and luminescence was immediately recorded using an EnVision plate reader (PerkinElmer).
as §3

5-HT1A A365^6.55F mutant = assay: GloSensor cAMP assay on 5-HT1A mutant A365F; details: mutant versus WT 5-HT1A, fold less potent, Fig. S7E
Procedure: In order to examine the underlying mechanism of ligand selectivity, we introduced a mutation at position A365^6.55, replacing it with phenylalanine.
as §4
WT or mutant were transfected into HEK293T cells and Glosenser cAMP assay were measured to reflect the activity of 5-HT1AR. The response data was normalized by WT receptor within each individual experiment, with the basal activity for WT as 0, while the fitted Emax of WT as 100. Three independent experiments were conducted (n=3).

mice [6] = assay: Horizontal locomotor activity (HLA), side effect detection; format: in vivo, C57BL/6 male mice; details: 25 mg/kg i.p., recorded 30 min, in contrast to 5-MeO-DMT, Fig. S10
Procedure: as §2

[7] = test system: PCPA-induced mouse model of depression and anxiety; assay: Tail suspension test (TST) in PCPA model; format: in vivo, C57BL/6 male mice; details: for Immobility time in TST: PCPA model, 5-OH-DMT 15 mg/kg i.p. or WAY100635 1 mg/kg i.p. for 3 d, versus control or model group, Fig. 6F
Procedure: as §1

[8] = test system: PCPA-induced mouse model of depression and anxiety; assay: Open-field test (OFT) in PCPA model; format: in vivo, C57BL/6 male mice; details: for OFT time spent in center / OFT total distance traveled: PCPA model, 5-OH-DMT 15 mg/kg i.p. or WAY100635 1 mg/kg i.p. for 3 d, versus control or PCPA mice, Fig. 6I
Procedure: as §1

[9] = PCPA + 5-OH-DMT 15 mg/kg + WAY100635 1 mg/kg i.p. versus PCPA + 5-OH-DMT

COc1ccc2[nH]cc(CCN(C)C)c2c1 [Compound 5-MeO-DMT, 5-methoxy-N,N-dimethyltryptamine]
OFT time spent in the center (CUMS model mice [1]): increased | OFT total distance traveled (CUMS model mice [1]): increased | OFT total distance after 5-HT1AR was knocked down (CUMS model mice [1]; CUMS, sh-5-HT1AR versus NC mice): reduced total distance | Sucrose preference (CUMS model mice [2]): significantly counteract the reduction in sucrose preference induced by CUMS | Potency at 5-HT2AR compared to 5-OH-DMT (5-HT2A receptor; ratio of EC50 values, times more potent): 100 times

CN(C)CCc1c[nH]c2ccc(O)cc12 [Compound 5-OH-DMT, 5-hydroxy-N,N-dimethyltryptamine]
Immobility time in FST, with addition of WAY100635 [3, 9]: prolonged the immobility time | Immobility time in FST [3]: shorter immobility durations | Sucrose preference, with addition of WAY100635 [4, 9]: this increase was reversed by WAY100635 | Sucrose preference [4]: increased sucrose preference | Head-twitch response (HTR) (mice [5]): somewhat reduced | EC50 (5-HT1A receptor): 0.1 µM | Loss in potency at A365^6.55F mutant (5-HT1A A365^6.55F mutant): around 1,000 fold | OFT time spent in the center (CUMS model mice [1]): increased | OFT total distance traveled (CUMS model mice [1]): increased | Sucrose preference (CUMS model mice [2]): significantly counteract the reduction in sucrose preference induced by CUMS | Horizontal locomotor activity (HLA), total distance (mice [6]): somewhat reduced | Immobility time in TST, with addition of WAY100635 [7, 9]: prolonged the immobility time | Immobility time in TST [7]: shorter immobility durations | Drop in potency with 5-HT2A (5-HT2A receptor; 5-HT2A relative to 5-HT1A, times lower, Fig. 1A): roughly 10 times | OFT time spent in the center, with administration of WAY100635 [8, 9]: significantly recovered these changes | OFT total distance, with administration of WAY100635 [8, 9]: significantly recovered these changes | OFT time spent in center [8]: dramatically increased | OFT total distance traveled [8]: dramatically increased

C[N+](C)(C)CCc1c[nH]c2ccc([O-])cc12 [Compound 5-OH-TMT, 5-hydroxy-N,N,N-dimethyltryptamine]
EC50 (5-HT1A receptor; GloSensor cAMP, Gi activation, HEK 293T, Fig. 1A, read-out: EC50 at 5-HT1AR): 10 µM | EC50 (5-HT2A receptor): 10 µM

COc1ccccc1N1CCN(CCN(C(=O)C2CCCCC2)c2ccccn2)CC1 [WAY100635, reference compound]
Immobility time in FST [3]: significantly increased immobility time | Sucrose preference [4]: reduced sucrose preference | Immobility time in TST [7]: significantly increased immobility time | OFT time spent in center [8]: less time spent in center | OFT total distance traveled [8]: less total distance traveled
